# Experimental data reported in PubChem BioAssay AID1963846 (Molecular Pharmacology Branch, DTP, NCI, 2024).
# System: 454973-116-R2-J3-PDC complex spheroid viability
# Test: Anticancer human tumor 454973-116-R2-J3-PDC patient-derived pancreatic carcinoma cell line growth inhibition [POLQ]
# Conditions: for IC50: curve of first compound; for viability, T/C: stronger effect = lower value
# Summary of the method: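 Patient-derived tumour cells were co-cultured with HUVEC and mesenchymal stem cells as multicellular spheroids at 37 °C. They were treated with POLQ inhibitors (novobiocin, ART-558, RP6685) alone or combined with other agents. Top concentrations were at or near clinical Cmax (otherwise 10 microM; SN-38 at 1 microM), decreasing in half-log steps.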
# [1] = second compound 0.0316 µM, first compound 0.0316 µM
# [2] = second compound 0.0316 µM, first compound 0.1 µM
# [3] = second compound 0.0316 µM, first compound 0.316 µM
# [4] = second compound 0.0316 µM, first compound 1 µM
# [5] = second compound 0.1 µM, first compound 0.0316 µM
# [6] = second compound 0.1 µM, first compound 0.1 µM
# [7] = second compound 0.1 µM, first compound 0.316 µM
# [8] = second compound 0.1 µM, first compound 1 µM
# [9] = second compound 0.316 µM, first compound 0.0316 µM
# [10] = second compound 0.316 µM, first compound 0.1 µM
# [11] = second compound 0.316 µM, first compound 0.316 µM
# [12] = second compound 0.316 µM, first compound 1 µM
# [13] = second compound 1 µM, first compound 0.0316 µM
# [14] = second compound 1 µM, first compound 0.1 µM
# [15] = second compound 1 µM, first compound 0.316 µM
# [16] = second compound 1 µM, first compound 1 µM
# [17] = second compound 3.16 µM, first compound 0.0316 µM
# [18] = second compound 3.16 µM, first compound 0.1 µM
# [19] = second compound 3.16 µM, first compound 0.316 µM
# [20] = second compound 3.16 µM, first compound 1 µM
# [21] = second compound 10 µM, first compound 0.0316 µM
# [22] = second compound 10 µM, first compound 0.1 µM
# [23] = second compound 10 µM, first compound 0.316 µM
# [24] = second compound 10 µM, first compound 1 µM
# [25] = second compound 0.0316 µM, first compound 3.16 µM
# [26] = second compound 0.0316 µM, first compound 10 µM
# [27] = second compound 0.1 µM, first compound 3.16 µM
# [28] = second compound 0.1 µM, first compound 10 µM
# [29] = second compound 0.316 µM, first compound 3.16 µM
# [30] = second compound 0.316 µM, first compound 10 µM
# [31] = second compound 1 µM, first compound 3.16 µM
# [32] = second compound 1 µM, first compound 10 µM
# [33] = second compound 3.16 µM, first compound 3.16 µM
# [34] = second compound 3.16 µM, first compound 10 µM
# [35] = second compound 10 µM, first compound 3.16 µM
# [36] = second compound 10 µM, first compound 10 µM
# 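Note: spheroids exposed to drugs for seven days before measurement.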
# 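Throughout, for viability, T/C: percent viability relative to DMSO vehicle control wells taken as 100%.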
smiles,measurement,setting,value
CCc1c2c(nc3ccc(O)cc13)-c1cc3c(c(=O)n1C2)COC(=O)[C@]3(O)CC + Cc1cccc(N(C)C(=O)C2C(O)CCN2c2nc(C)cc(C(F)(F)F)c2C#N)c1,IC50,second compound 0.0316 µM,< 0.00316 µM
same,IC50,second compound 0.1 µM,< 0.00316 µM
same,IC50,second compound 0.316 µM,< 0.00316 µM
same,IC50,second compound 1 µM,< 0.00316 µM
same,IC50,second compound 3.16 µM,< 0.00316 µM
same,IC50,second compound 10 µM,< 0.00316 µM
same,"viability, T/C","second compound 0.0316 µM, first compound 0.00316 µM",32.6%
same,"viability, T/C","second compound 0.0316 µM, first compound 0.01 µM",17.2%
same,"viability, T/C",[1],13.2%
same,"viability, T/C",[2],6.84%
same,"viability, T/C",[3],2.58%
same,"viability, T/C",[4],1.69%
same,"viability, T/C","second compound 0.1 µM, first compound 0.00316 µM",31.1%
same,"viability, T/C","second compound 0.1 µM, first compound 0.01 µM",19.1%
same,"viability, T/C",[5],13.6%
same,"viability, T/C",[6],5.52%
same,"viability, T/C",[7],2.13%
same,"viability, T/C",[8],1.7%
same,"viability, T/C","second compound 0.316 µM, first compound 0.00316 µM",28.8%
same,"viability, T/C","second compound 0.316 µM, first compound 0.01 µM",17.2%
same,"viability, T/C",[9],15%
same,"viability, T/C",[10],5.17%
same,"viability, T/C",[11],1.9%
same,"viability, T/C",[12],1.61%
same,"viability, T/C","second compound 1 µM, first compound 0.00316 µM",35.7%
same,"viability, T/C","second compound 1 µM, first compound 0.01 µM",18.7%
same,"viability, T/C",[13],11.5%
same,"viability, T/C",[14],5.4%
same,"viability, T/C",[15],2.24%
same,"viability, T/C",[16],1.72%
same,"viability, T/C","second compound 3.16 µM, first compound 0.00316 µM",33.6%
same,"viability, T/C","second compound 3.16 µM, first compound 0.01 µM",21.9%
same,"viability, T/C",[17],13.1%
same,"viability, T/C",[18],5.13%
same,"viability, T/C",[19],2.23%
same,"viability, T/C",[20],1.68%
same,"viability, T/C","second compound 10 µM, first compound 0.00316 µM",26.3%
same,"viability, T/C","second compound 10 µM, first compound 0.01 µM",21.5%
same,"viability, T/C",[21],12.8%
same,"viability, T/C",[22],4.56%
same,"viability, T/C",[23],1.72%
same,"viability, T/C",[24],4.16%
CNCc1ccc(-c2[nH]c3cc(F)cc4c3c2CCNC4=O)cc1 + Cc1cccc(N(C)C(=O)C2C(O)CCN2c2nc(C)cc(C(F)(F)F)c2C#N)c1,IC50,second compound 0.0316 µM,> 10 µM
same,IC50,second compound 0.1 µM,> 10 µM
same,IC50,second compound 0.316 µM,> 10 µM
same,IC50,second compound 1 µM,> 10 µM
same,IC50,second compound 3.16 µM,> 10 µM
same,IC50,second compound 10 µM,> 10 µM
same,"viability, T/C",[1],110%
same,"viability, T/C",[2],96.1%
same,"viability, T/C",[3],101%
same,"viability, T/C",[4],103%
same,"viability, T/C",[25],101%
same,"viability, T/C",[26],79.1%
same,"viability, T/C",[5],94%
same,"viability, T/C",[6],108%
same,"viability, T/C",[7],97.8%
same,"viability, T/C",[8],102%
same,"viability, T/C",[27],99.4%
same,"viability, T/C",[28],83%
same,"viability, T/C",[9],106%
same,"viability, T/C",[10],102%
same,"viability, T/C",[11],107%
same,"viability, T/C",[12],98.9%
same,"viability, T/C",[29],104%
same,"viability, T/C",[30],85.8%
same,"viability, T/C",[13],108%
same,"viability, T/C",[14],111%
same,"viability, T/C",[15],103%
same,"viability, T/C",[16],97.2%
same,"viability, T/C",[31],100%
same,"viability, T/C",[32],86.6%
same,"viability, T/C",[17],109%
same,"viability, T/C",[18],105%
same,"viability, T/C",[19],105%
same,"viability, T/C",[20],106%
same,"viability, T/C",[33],106%
same,"viability, T/C",[34],82.9%
same,"viability, T/C",[21],118%
same,"viability, T/C",[22],105%
same,"viability, T/C",[23],101%
same,"viability, T/C",[24],95.6%
same,"viability, T/C",[35],106%
same,"viability, T/C",[36],74.9%
Nc1ccn(C2OC(CO)C(O)C2(F)F)c(=O)n1 (stereo not drawn) + Cc1cccc(N(C)C(=O)C2C(O)CCN2c2nc(C)cc(C(F)(F)F)c2C#N)c1,IC50,second compound 0.0316 µM,< 0.0316 µM
same,IC50,second compound 0.1 µM,< 0.0316 µM
same,IC50,second compound 0.316 µM,< 0.0316 µM
same,IC50,second compound 1 µM,< 0.0316 µM
same,IC50,second compound 3.16 µM,< 0.0316 µM
same,IC50,second compound 10 µM,< 0.0316 µM
same,"viability, T/C",[1],13.4%
same,"viability, T/C",[2],13.4%
same,"viability, T/C",[3],14.2%
same,"viability, T/C",[4],12.5%
same,"viability, T/C",[25],12.3%
same,"viability, T/C",[26],12.7%
same,"viability, T/C",[5],16.2%
same,"viability, T/C",[6],11.9%
same,"viability, T/C",[7],13.7%
same,"viability, T/C",[8],15.5%
same,"viability, T/C",[27],13.5%
same,"viability, T/C",[28],13.9%
same,"viability, T/C",[9],15.1%
same,"viability, T/C",[10],13.8%
same,"viability, T/C",[11],14.2%
same,"viability, T/C",[12],14.2%
same,"viability, T/C",[29],13.6%
same,"viability, T/C",[30],12.8%
same,"viability, T/C",[13],14.1%
same,"viability, T/C",[14],11.7%
same,"viability, T/C",[15],13.9%
same,"viability, T/C",[16],14.6%
same,"viability, T/C",[31],12.5%
same,"viability, T/C",[32],11.8%
same,"viability, T/C",[17],16.9%
same,"viability, T/C",[18],13.5%
same,"viability, T/C",[19],14.8%
same,"viability, T/C",[20],13.8%
same,"viability, T/C",[33],12.5%
same,"viability, T/C",[34],14%
same,"viability, T/C",[21],13.6%
same,"viability, T/C",[22],14.2%
same,"viability, T/C",[23],17.1%
same,"viability, T/C",[24],14.2%
same,"viability, T/C",[35],13.8%
same,"viability, T/C",[36],11.9%
O=C(c1cc(Cc2n[nH]c(=O)c3ccccc23)ccc1F)N1CCN(C(=O)C2CC2)CC1 + Cc1cccc(N(C)C(=O)C2C(O)CCN2c2nc(C)cc(C(F)(F)F)c2C#N)c1,IC50,second compound 0.0316 µM,> 10 µM
same,IC50,second compound 0.1 µM,> 10 µM
same,IC50,second compound 0.316 µM,> 10 µM
same,IC50,second compound 1 µM,> 10 µM
same,IC50,second compound 3.16 µM,> 10 µM
same,IC50,second compound 10 µM,> 10 µM
same,"viability, T/C",[1],99.8%
same,"viability, T/C",[2],107%
same,"viability, T/C",[3],95.3%
same,"viability, T/C",[4],103%
same,"viability, T/C",[25],98%
same,"viability, T/C",[26],61.4%
same,"viability, T/C",[5],94.7%
same,"viability, T/C",[6],103%
same,"viability, T/C",[7],103%
same,"viability, T/C",[8],99.3%
same,"viability, T/C",[27],91.4%
same,"viability, T/C",[28],64.8%
same,"viability, T/C",[9],99.1%
same,"viability, T/C",[10],110%
same,"viability, T/C",[11],106%
same,"viability, T/C",[12],106%
same,"viability, T/C",[29],94.5%
same,"viability, T/C",[30],61%
same,"viability, T/C",[13],105%
same,"viability, T/C",[14],96.8%
same,"viability, T/C",[15],109%
same,"viability, T/C",[16],102%
same,"viability, T/C",[31],91.1%
same,"viability, T/C",[32],62%
same,"viability, T/C",[17],108%
same,"viability, T/C",[18],98.5%
same,"viability, T/C",[19],104%
same,"viability, T/C",[20],96.2%
same,"viability, T/C",[33],96.3%
same,"viability, T/C",[34],62.6%
same,"viability, T/C",[21],108%
same,"viability, T/C",[22],105%
same,"viability, T/C",[23],102%
same,"viability, T/C",[24],98.4%
same,"viability, T/C",[35],92%
same,"viability, T/C",[36],57.7%
